In paper PMC6156230, “Caspase-1 inhibition alleviates cognitive impairment and neuropathology in an Alzheimer’s disease mouse model” (Nature Communications, 2018):

Experiments:
Assay in all cases: fluorogenic AFC peptide substrate assay
Format in all cases: biochemical
human Casp5 = biological target: T1, human Casp5 (Homo sapiens, UniProt P51878); conditions: 10 µM Ac-WEHD-AFC, pH 7.2, 37 °C, 10 mM DTT
T1 construct: recombinant caspase, commercial (BioVision)
T1 sequence (P51878 137-327): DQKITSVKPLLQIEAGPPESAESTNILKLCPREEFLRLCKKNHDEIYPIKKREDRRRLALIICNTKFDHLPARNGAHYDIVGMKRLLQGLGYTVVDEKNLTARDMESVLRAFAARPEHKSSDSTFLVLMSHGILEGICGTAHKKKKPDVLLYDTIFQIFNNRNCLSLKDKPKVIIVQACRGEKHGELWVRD
T1 sequence (P51878 347-434): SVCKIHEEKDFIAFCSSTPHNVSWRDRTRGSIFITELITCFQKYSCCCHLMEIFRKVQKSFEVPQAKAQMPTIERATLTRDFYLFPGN

human Casp9 = biological target: T2, human Casp9 (Homo sapiens, UniProt P55211); conditions: 10 µM Ac-LEHD-AFC, pH 7.2, 37 °C, 10 mM DTT
T2 construct: recombinant caspase, commercial (BioVision)
T2 sequence (P55211 1-315): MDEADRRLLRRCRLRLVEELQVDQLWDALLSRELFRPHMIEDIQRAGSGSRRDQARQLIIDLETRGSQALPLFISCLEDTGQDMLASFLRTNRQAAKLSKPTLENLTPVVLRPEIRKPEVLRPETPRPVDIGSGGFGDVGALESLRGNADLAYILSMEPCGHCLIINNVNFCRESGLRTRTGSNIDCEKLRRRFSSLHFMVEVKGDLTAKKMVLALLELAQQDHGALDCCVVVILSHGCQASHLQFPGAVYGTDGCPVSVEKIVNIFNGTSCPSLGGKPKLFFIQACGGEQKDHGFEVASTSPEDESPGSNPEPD
T2 sequence (P55211 331-416): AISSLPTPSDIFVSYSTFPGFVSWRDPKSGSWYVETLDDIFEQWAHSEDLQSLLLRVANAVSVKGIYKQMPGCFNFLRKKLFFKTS

human Casp10 = biological target: T3, human Casp10 (Homo sapiens, UniProt Q92851); conditions: 10 µM Ac-IETD-AFC, pH 7.2, 37 °C, 10 mM DTT
T3 construct: recombinant caspase, commercial (BioVision)
T3 sequence (Q92851 220-415): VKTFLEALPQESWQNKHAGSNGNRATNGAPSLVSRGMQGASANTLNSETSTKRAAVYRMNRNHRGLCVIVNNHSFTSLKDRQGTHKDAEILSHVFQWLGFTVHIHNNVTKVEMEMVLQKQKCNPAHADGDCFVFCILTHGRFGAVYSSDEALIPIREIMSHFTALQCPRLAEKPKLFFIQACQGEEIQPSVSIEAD
T3 sequence (Q92851 416-521): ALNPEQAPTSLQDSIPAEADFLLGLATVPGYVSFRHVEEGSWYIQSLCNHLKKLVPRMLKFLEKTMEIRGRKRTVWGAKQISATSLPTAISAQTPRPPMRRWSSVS

human Casp8 = biological target: T4, human Casp8 (Homo sapiens, UniProt Q14790); conditions: 10 µM Ac-IETD-AFC, pH 7.2, 37 °C, 10 mM DTT
T4 construct: recombinant caspase, commercial (BioVision)

human Casp1 = biological target: T5, human Casp1 (Homo sapiens, UniProt P29466)
T5 construct: recombinant caspase, commercial (BioVision)
T5 sequence (P29466 120-297): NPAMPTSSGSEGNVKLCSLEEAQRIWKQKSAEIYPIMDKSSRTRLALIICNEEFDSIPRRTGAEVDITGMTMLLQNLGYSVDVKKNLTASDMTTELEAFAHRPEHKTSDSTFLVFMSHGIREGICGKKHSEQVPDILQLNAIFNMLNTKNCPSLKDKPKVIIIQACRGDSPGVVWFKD
T5 sequence (P29466 317-404): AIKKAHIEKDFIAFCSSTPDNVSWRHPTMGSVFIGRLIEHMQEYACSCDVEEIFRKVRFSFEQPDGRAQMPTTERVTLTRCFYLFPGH

mouse recombinant Casp1 = biological target: T6, mouse recombinant Casp1 (Mus musculus, UniProt P29452)
T6 construct: recombinant caspase, commercial
T6 sequence (P29452 119-296): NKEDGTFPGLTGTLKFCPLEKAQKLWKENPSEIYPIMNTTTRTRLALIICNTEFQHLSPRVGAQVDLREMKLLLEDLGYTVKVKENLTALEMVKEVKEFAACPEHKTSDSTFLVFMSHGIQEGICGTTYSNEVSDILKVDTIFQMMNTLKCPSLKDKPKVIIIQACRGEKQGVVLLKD
T6 sequence (P29452 315-402): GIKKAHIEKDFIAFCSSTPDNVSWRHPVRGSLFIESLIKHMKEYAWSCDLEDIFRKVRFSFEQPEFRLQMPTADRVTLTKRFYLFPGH

T4 sequence (Q14790 217-374): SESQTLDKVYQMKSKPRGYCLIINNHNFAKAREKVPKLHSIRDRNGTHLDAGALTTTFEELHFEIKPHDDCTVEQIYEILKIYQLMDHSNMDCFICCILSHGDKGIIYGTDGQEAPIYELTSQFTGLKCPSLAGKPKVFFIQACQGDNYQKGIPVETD
T4 sequence (Q14790 385-479): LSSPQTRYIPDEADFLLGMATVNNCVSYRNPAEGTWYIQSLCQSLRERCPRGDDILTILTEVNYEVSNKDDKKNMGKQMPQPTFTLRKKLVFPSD

Row | SMILES | IC50 (human Casp5) | IC50 (human Casp9) | IC50 (human Casp10) | IC50 (human Casp8) | IC50 (human Casp1) | IC50 (mouse recombinant Casp1)
1 | CCO[C@@H]1OC(=O)C[C@@H]1NC(=O)[C@@H]1CCCN1C(=O)[C@@H](NC(=O)c1ccc(N)c(Cl)c1)C(C)(C)C [VX-765] | Casp5, Casp8, Casp9 and Casp10, which were inhibited in the nanomolar range in vitro | Casp5, Casp8, Casp9 and Casp10, which were inhibited in the nanomolar range in vitro | Casp5, Casp8, Casp9 and Casp10, which were inhibited in the nanomolar range in vitro | Casp5, Casp8, Casp9 and Casp10, which were inhibited in the nanomolar range in vitro |  | 
2 | CC(C)(C)[C@H](NC(=O)c1ccc(N)c(Cl)c1)C(=O)N1CCC[C@H]1C(=O)N[C@H](C=O)CC(=O)O [VRT-043198] | Casp5, Casp8, Casp9 and Casp10, which were inhibited in the nanomolar range in vitro | Casp5, Casp8, Casp9 and Casp10, which were inhibited in the nanomolar range in vitro | Casp5, Casp8, Casp9 and Casp10, which were inhibited in the nanomolar range in vitro | Casp5, Casp8, Casp9 and Casp10, which were inhibited in the nanomolar range in vitro | 9.91 nM | 18 nM
